In PMC8154557 (Journal of Medicinal Chemistry, 2021):

Legend:
[1] = tested on: T84 cells; assay: Viability MTT assay; conditions: 10%, positive control, 24 h
[2] = tested on: T84 cells; assay: TEER measurement of epithelial integrity; conditions: 10%, positive control, 24 h
[3] = target: Stx1B (Shigella dysenteriae, UniProt Q7BQ98); assay: biochemical; assay type: binding, Escherichia coli
Stx1B, sequence (Q7BQ98 21-89 limits assumed): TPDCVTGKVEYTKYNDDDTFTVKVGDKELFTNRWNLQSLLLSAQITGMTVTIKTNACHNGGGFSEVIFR

Row | SMILES | rel. pot. per sugar [3] | rel.pot. [3] | further results
1 | CCO [ethanol] | – | – | T84 cell viability (MTT) [1]: significantly reduced; transepithelial electrical resistance (TEER) values [2]: strongly decreased
2 | OC[C@H]1O[C@@H](O[C@H]2[C@H](O)[C@@H](O)C(O)O[C@@H]2CO)[C@H](O)[C@@H](O)[C@H]1O (mixture of isomers) [Lactose, reference compound] | – | – | inhibition of the toxin (in words) [3]: did not show any activity
3 | O=C(NCCCCCCCCCCCCNC(=O)c1cc(OCc2cn([C@@H]3O[C@H](CO)[C@H](O[C@H]4O[C@H](CO)[C@H](O)[C@H](O)[C@H]4O)[C@H](O)[C@H]3O)nn2)cc(OCc2cn([C@@H]3O[C@H](CO)[C@H](O[C@H]4O[C@H](CO)[C@H](O)[C@H](O)[C@H]4O)[C@H](O)[C@H]3O)nn2)c1)c1cc(OCc2cn([C@@H]3O[C@H](CO)[C@H](O[C@H]4O[C@H](CO)[C@H](O)[C@H](O)[C@H]4O)[C@H](O)[C@H]3O)nn2)cc(OCc2cn([C@@H]3O[C@H](CO)[C@H](O[C@H]4O[C@H](CO)[C@H](O)[C@H](O)[C@H]4O)[C@H](O)[C@H]3O)nn2)c1 [Compound 6] | 92 | 367 | –
4 | O=C(O)c1cc(OCc2cn([C@@H]3O[C@H](CO)[C@H](O[C@H]4O[C@H](CO)[C@H](O)[C@H](O)[C@H]4O)[C@H](O)[C@H]3O)nn2)cc(OCc2cn([C@@H]3O[C@H](CO)[C@H](O[C@H]4O[C@H](CO)[C@H](O)[C@H](O)[C@H]4O)[C@H](O)[C@H]3O)nn2)c1 [Compound 3] | 2.3 | 4.6 | IC50 ([3]; IC50): 1000 µM
5 | O=C(NCCOc1cc(OCCNC(=O)OCc2cn([C@@H]3O[C@H](CO)[C@H](O[C@H]4O[C@H](CO)[C@H](O)[C@H](O)[C@H]4O)[C@H](O)[C@H]3O)nn2)cc(C(=O)O)c1)OCc1cn([C@@H]2O[C@H](CO)[C@H](O[C@H]3O[C@H](CO)[C@H](O)[C@H](O)[C@H]3O)[C@H](O)[C@H]2O)nn1 [Compound 4] | 2 | 4 | –
6 | O=C(O)c1cc(OCCNC(=O)c2cc(OCc3cn([C@@H]4O[C@H](CO)[C@H](O[C@H]5O[C@H](CO)[C@H](O)[C@H](O)[C@H]5O)[C@H](O)[C@H]4O)nn3)cc(OCc3cn([C@@H]4O[C@H](CO)[C@H](O[C@H]5O[C@H](CO)[C@H](O)[C@H](O)[C@H]5O)[C@H](O)[C@H]4O)nn3)c2)cc(OCCNC(=O)c2cc(OCc3cn([C@@H]4O[C@H](CO)[C@H](O[C@H]5O[C@H](CO)[C@H](O)[C@H](O)[C@H]5O)[C@H](O)[C@H]4O)nn3)cc(OCc3cn([C@@H]4O[C@H](CO)[C@H](O[C@H]5O[C@H](CO)[C@H](O)[C@H](O)[C@H]5O)[C@H](O)[C@H]4O)nn3)c2)c1 [Compound 5] | 62.5 | 250 | –
7 | [N-]=[N+]=N[C@@H]1O[C@H](CO)[C@H](O[C@H]2O[C@H](CO)[C@H](O)[C@H](O)[C@H]2O)[C@H](O)[C@H]1O [Compound 1e] | 1 | – | –
